Experimental findings from PubChem BioAssay AID180 (DTP/NCI, 2004) are described below.

“And” between values parts separate entries of the source, which are not always exact repeats. Identical values can stand only once.

The subject of this assay is BDF1 mice, Adenocarcinoma 755 s.c., tumor weight T/C. Description: NCI In Vivo Anticancer Drug Screen. Data for tumor model Adenocarcinoma 755 (subcutaneous) in B6D2F1 (BDF1) mice. Conditions: endpoint: mean tumor weight, schedule: Q01DX011 (ip), higher = larger tumour. The gist of the method: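 Values express treated (T) relative to vehicle-dosed control (C) animals, based on survival or tumour size measured after compound treatment of mice bearing a transplanted tumour.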

The mark [1] stands for this setting: dose: 75.0 mg/kg/injection, vehicle: carboxymethylcellulose (CMC).
Where [2] appears, read: dose: 62.5 mg/kg/injection, vehicle: carboxymethylcellulose (CMC).
Setting [3] is: dose: 125.0 mg/kg/injection, vehicle: carboxymethylcellulose (CMC).

Usually T/C stands for the result in the treated group divided by that in the control group, in per cent. For the compound `O=C(N[C@H](CO)[C@H](O)c1ccc([N+](=O)[O-])cc1)C(Cl)Cl`, the T/C runs as follows: (dose: 71.73 mg/kg/injection, vehicle: carboxymethylcellulose (CMC)) 88 % of control; (dose: 73.63 mg/kg/injection, vehicle: carboxymethylcellulose (CMC)) 103 % of control and 106 % of control; (dose: 95.85 mg/kg/injection, vehicle: carboxymethylcellulose (CMC)) 95 % of control; (dose: 143.47 mg/kg/injection, vehicle: carboxymethylcellulose (CMC)) 104 % of control; (dose: 147.25 mg/kg/injection, vehicle: carboxymethylcellulose (CMC)) 71 % of control; (dose: 187.5 mg/kg/injection, vehicle: methylcellulose (MC)) 70 % of control. Also, the T/C was 156 % of control (dose: 191.7 mg/kg/injection, vehicle: carboxymethylcellulose (CMC)); 115 % of control (dose: 286.95 mg/kg/injection, vehicle: carboxymethylcellulose (CMC)); 65 % of control (dose: 294.5 mg/kg/injection, vehicle: carboxymethylcellulose (CMC)); 104 % of control (dose: 300.0 mg/kg/injection, vehicle: carboxymethylcellulose (CMC)); 62 % of control (dose: 375.0 mg/kg/injection, vehicle: methylcellulose (MC)); 69 % of control (dose: 500.0 mg/kg/injection, vehicle: carboxymethylcellulose (CMC)). Moreover, the T/C (dose: 750.0 mg/kg/injection, vehicle: methylcellulose (MC)) is 99 % of control.
On to `Clc1cccc(CSc2ncnc3nc[nH]c23)c1`, for which the T/C (dose: 3.9 mg/kg/injection, vehicle: methylcellulose (MC)) is 56 % of control; the T/C (dose: 7.8 mg/kg/injection, vehicle: methylcellulose (MC)) was 57 % of control; the T/C (dose: 15.6 mg/kg/injection, vehicle: methylcellulose (MC)) is 20 % of control; the T/C (dose: 31.25 mg/kg/injection, vehicle: methylcellulose (MC)) is 3 % of control and 7 % of control; the T/C (dose: 62.5 mg/kg/injection, vehicle: methylcellulose (MC)) is 5 % of control.
As for `O=C(Nc1ccc(NC(=O)Nc2cccc(C3=NCCN3)c2)cc1)Nc1cccc(C2=NCCN2)c1`, the T/C runs as follows: (dose: 18.75 mg/kg/injection, vehicle: carboxymethylcellulose (CMC)) 85 % of control; (dose: 37.5 mg/kg/injection, vehicle: carboxymethylcellulose (CMC)) 73 % of control; under setting [1], 73 % of control; (dose: 150.0 mg/kg/injection, vehicle: carboxymethylcellulose (CMC)) 112 % of control.
For the compound `O=C(/C=C/C(=O)c1ccccc1)c1ccccc1`, the T/C is 76 % of control (dose: 65.0 mg/kg/injection, vehicle: other); 59 % of control (dose: 90.0 mg/kg/injection, vehicle: other); 51 % of control (dose: 125.0 mg/kg/injection, vehicle: other).
With `Cc1cnc(SCc2ccccc2)[nH]c1=O`, the T/C was 103 % of control (dose: 15.0 mg/kg/injection, vehicle: methylcellulose (MC)); 104 % of control (dose: 31.0 mg/kg/injection, vehicle: methylcellulose (MC)); 92 % of control (dose: 125.0 mg/kg/injection, vehicle: methylcellulose (MC)); 77 % of control (dose: 250.0 mg/kg/injection, vehicle: methylcellulose (MC)).
In the case of `CCCCSc1ncnc2nc[nH]c12`, the T/C (dose: 0.25 mg/kg/injection, vehicle: carboxymethylcellulose (CMC)) was 119 % of control; the T/C (dose: 1.0 mg/kg/injection, vehicle: carboxymethylcellulose (CMC)) was 121 % of control; the T/C (dose: 4.0 mg/kg/injection, vehicle: carboxymethylcellulose (CMC)) is 62 % of control; the T/C (dose: 15.0 mg/kg/injection, vehicle: carboxymethylcellulose (CMC)) was 4 % of control and 9 % of control; the T/C (dose: 62.0 mg/kg/injection, vehicle: carboxymethylcellulose (CMC)) was 4 % of control.
`CC[N+](C)(C)c1ncnc2nc[nH]c12`: the T/C is, setting by setting: (dose: 12.0 mg/kg/injection, vehicle: carboxymethylcellulose (CMC)) 88 % of control; (dose: 17.0 mg/kg/injection, vehicle: carboxymethylcellulose (CMC)) 80 % of control; (dose: 25.0 mg/kg/injection, vehicle: carboxymethylcellulose (CMC)) 47 % of control and 52 % of control; (dose: 37.0 mg/kg/injection, vehicle: carboxymethylcellulose (CMC)) 33 % of control; (dose: 50.0 mg/kg/injection, vehicle: carboxymethylcellulose (CMC)) 22 % of control; under setting [1], 6 % of control. Besides, the T/C (dose: 100.0 mg/kg/injection, vehicle: carboxymethylcellulose (CMC)) is 3 % of control.
Turning to `Cc1nc2nc(N)nc(N)c2nc1C`, the T/C reads like this: (dose: 12.62 mg/kg/injection, vehicle: carboxymethylcellulose (CMC)) 67 % of control; (dose: 15.63 mg/kg/injection, vehicle: carboxymethylcellulose (CMC)) 50 % of control; under setting [2], 122 % of control and 123 % of control; under setting [3], 58 % of control.
Regarding `CCC(C)n1ncc2c(N(C)C)ncnc21` (stereo unspecified), the T/C (dose: 16.25 mg/kg/injection, vehicle: saline) was 54 % of control and 73 % of control; the T/C (dose: 32.5 mg/kg/injection, vehicle: saline) is 42 % of control and 46 % of control; the T/C (dose: 65.0 mg/kg/injection, vehicle: saline) was 6 % of control.
Turning to `CCCCn1nnc2c(Nc3ccc(Cl)cc3)nc(N)nc21`, the T/C is 96 % of control under setting [2]; 89 % of control under setting [3]; 68 % of control (dose: 250.0 mg/kg/injection, vehicle: carboxymethylcellulose (CMC)).
`Fc1cccc(CSc2ncnc3c2ncn3C2CCCCO2)c1` (stereo unspecified): the T/C runs as follows: (dose: 20.0 mg/kg/injection, vehicle: methylcellulose (MC)) 13 % of control; (dose: 65.0 mg/kg/injection, vehicle: methylcellulose (MC)) 1 % of control.
As for `O=[N+]([O-])c1ccc2ncccc2c1`, the T/C was 83 % of control (dose: 31.2 mg/kg/injection, vehicle: other) and 52 % of control (dose: 62.5 mg/kg/injection, vehicle: other).
As to `Cc1ccc(N=Nc2c(S(=O)(=O)O)cc3cc(NC(=O)Nc4ccc5c(O)c(N=Nc6ccc7cc(S(=O)(=O)O)ccc7c6)c(S(=O)(=O)O)cc5c4)ccc3c2O)c(C)c1`, where the note is “dose: 45.0 mg/kg/injection, vehicle: carboxymethylcellulose (CMC)”, the T/C is 81 % of control.
As for `O=C1Nc2cc3c(c4cccc1c24)CCCC3`, the T/C is 111 % of control (dose: 1.25 mg/kg/injection, vehicle: carboxymethylcellulose (CMC)) and 95 % of control (dose: 5.0 mg/kg/injection, vehicle: carboxymethylcellulose (CMC)).
On to `OCCn1cnc2c(SCc3ccccc3)ncnc21`, for which the T/C is 108 % of control (dose: 12.5 mg/kg/injection, vehicle: methylcellulose (MC)); 17 % of control (dose: 25.0 mg/kg/injection, vehicle: methylcellulose (MC)); 3 % of control (dose: 50.0 mg/kg/injection, vehicle: methylcellulose (MC)); 3 % of control (dose: 75.0 mg/kg/injection, vehicle: methylcellulose (MC)); 1 % of control (dose: 100.0 mg/kg/injection, vehicle: methylcellulose (MC)).
As to `Cc1nc2nncn2c(=O)[nH]1`, the T/C by setting is: (dose: 25.0 mg/kg/injection, vehicle: saline) 67 % of control; (dose: 75.0 mg/kg/injection, vehicle: saline) 101 % of control; (dose: 225.0 mg/kg/injection, vehicle: saline) 84 % of control.
